Biological target: T1, MeCP2-TBL1 interaction (MeCP2-SmBiT / TBL1-LgBiT) (Mus musculus, UniProt Q9QXE7)
T1 construct: expressed in transfected cells; crude lysate used as a cell-free assay
T1 sequence (Q9QXE7 166-527): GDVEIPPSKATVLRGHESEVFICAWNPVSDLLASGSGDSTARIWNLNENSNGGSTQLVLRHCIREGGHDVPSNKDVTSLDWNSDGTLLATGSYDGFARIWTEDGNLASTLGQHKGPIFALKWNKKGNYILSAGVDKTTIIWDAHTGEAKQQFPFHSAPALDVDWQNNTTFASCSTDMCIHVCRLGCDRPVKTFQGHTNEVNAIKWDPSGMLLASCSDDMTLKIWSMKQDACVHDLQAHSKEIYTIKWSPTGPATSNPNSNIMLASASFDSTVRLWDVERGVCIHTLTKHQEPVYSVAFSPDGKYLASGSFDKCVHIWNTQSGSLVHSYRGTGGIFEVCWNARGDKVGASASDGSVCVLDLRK
Assay: MeCP2-TBL1 NanoLuc luciferase complementation assay (cell-free, extracts of transfected HEK293 cells)
Assay type: binding, human
Excerpt: To facilitate the discovery of inhibitors of the interaction between MeCP2 and TBL1/TBLR1, we set out to devise a simple and scalable biochemical assay for measuring the interaction between these two proteins. We initially explored the possibility of screening compound libraries using a previously established fluorescence polarization assay that depends on purified recombinant TBL1/TBLR1[26]. […] The resulting luminescence signal depends on the affinity between the two interacting proteins of interest (Fig. 1A). This method was originally developed to allow for the interrogation of protein–protein interactions in vivo. However, in order to facilitate large scale screening of chemical libraries, we adapted the assay for use as a cell-free system.
We fused the large N-terminal fragment of NanoLuc (LgBiT) to the C-terminus of the WD repeat domains of both TBL1 and TBLR1, and the small C-terminal fragment of NanoLuc (SmBiT) to the C-terminus of the C-terminal half of MeCP2 (Fig. 1B and C). This region of MeCP2 contains the NID (NCoR interaction domain)—the motif in MeCP2 that binds to TBL1/TBLR1.
The AgeI-NotI restriction fragment (encoding EGFP) was then replaced with a codon optimized SmBiT sequence to yield the MeCP2-SmBiT expression plasmid. The TBL1-LgBiT expression vector was derived from a TBL1-mCherry plasmid[25] by replacing the AgeI-NotI restriction fragment (encoding mCherry) with a codon optimized LgBiT sequence. SmBiT-PRKACA and LgBiT-PRKAR2A plasmids are commercially available (Promega, N203 and N204).
Cells were harvested after 24 h and cell pellets were stored at − 80 °C.
In the screens described here, the lysate obtained from a single 15 cm plate was used for 2.5 384-well assay plates. NanoLuc substrate (furimazine) (Promega, N1110) was diluted 1000-fold in passive lysis buffer (Promega, E1941) and added 1:1 to the lysate. Screening libraries were purchased from Asinex[40] and ApexBio (FDA-approved Drug Library, L1021). Compounds were dispensed using an Echo acoustic dispenser and tested at a final concentration of 20 µM in a total assay volume of 20 μl in 384-well plate format. DMSO was added to each well at a final concentration of 0.2% (v/v) and wells containing only DMSO were used as negative control. After 30 min incubation at room temperature, luminescence was measured on a Tecan M1000 multi-mode plate reader. Raw luminescence reads from each well on each plate were normalized to the median luminescence signal for that plate. In the ApexBio screen, the scaled and normalized PKA signal for each compound was subtracted from the MeCP2-TBL1 signal for the same compound. After plate normalization the robust SSMD (SSMD*) was calculated as described elsewhere. A threshold of SSMD* ≥ 3 was applied for discerning primary hits.
Assays were performed as described above except instead of a single concentration, a threefold serial dilution ranging from 60 to 0.03 μM was tested in triplicate for each of the compounds. Half-maximal inhibitory concentrations were calculated using global nonlinear regression by fitting the response data sets of all compounds simultaneously with a four-parameter logistic curve of log inhibitor concentration versus normalized luminescence using GraphPad Prism. During fitting, the maximum and minimum curve values were shared between the data sets.

[1] = primary screen of the Asinex library, sheet "Sargen output Asinex library", one well per compound, Batch Ref. 1
[2] = primary screen of the Asinex library, sheet "Sargen output Asinex library", one well per compound
[3] = primary screen of Asinex library, single well per compound

Inhibition percent [1] [%]	Inhibition percent [2] [%]	other results	Compound
3.48			Cc1cccc(Nc2ccc(C3CCCN3C(=O)COc3ccc4c(c3)OCCO4)nc2)n1 (stereo not drawn) [BDD_25671481]
	3.48		Cc1cc(-c2cnc(C(C)(C)C)nc2C2CCN(Cc3ccc(N4CCCC4)cc3)CC2)on1 [BDD_25871827]
	4.40		Cn1c(=O)c2ccc(C3CCCCN3C(=O)c3cc[nH]n3)nc2n(Cc2ccccc2)c1=O (stereo not drawn) [BDD_26868519]
-3.87			COc1ccccc1CNC(=O)c1cn(C)nc1CC1CCN(C(=O)c2cccnc2)CC1 [BDD_26909786]
	-1.33		Cn1cc(CCC(=O)N2CCCC2c2ccc(CNC3Cc4ccccc4C3)cn2)c2ccccc21 (stereo not drawn) [BDD_27352850]
6.69			Cc1nc2c(c(Nc3ccccn3)n1)CCN(S(=O)(=O)c1cccc(C(F)(F)F)c1)CC2 [BDD_27755359]
10.59			CC(C)(C)OC(=O)Nc1cc(-c2c[nH]nc2C2CCCCN2C(=O)OC(C)(C)C)ccn1 (stereo not drawn) [BDD_27845058]
	-3.22		CCOc1ccccc1NC(=O)N(C(C)c1ccccc1)C1CCn2c1nc1ccccc1c2=O (stereo not drawn) [BDD_27845157]
-2.94			O=C(c1ccccn1)N1CCCC1c1cccc(Cc2ccc(C(F)(F)F)cc2)n1 (stereo not drawn) [BDD_27852665]
	-2.15		COc1cccc(Cc2cccc(C3CCCN3C(=O)Cc3ccncc3)n2)c1 (stereo not drawn) [BDD_27854270]
9.99			COc1ccccc1Cc1cccc(C2CCCN2C(=O)Cc2c[nH]c3ccccc23)n1 (stereo not drawn) [BDD_27856210]
	-1.40		NC(=O)c1cccc(-c2nccnc2C2CCCN(CCCc3ccccc3)C2)c1 (stereo not drawn) [BDD_27892119]
		Inhibition percent [3]: -2.79	NC(=O)c1cccc(-c2nccnc2C2CCCN(C(=O)COc3ccc(F)cc3)C2)c1 (stereo not drawn) [BDD_27905103]
11.34			COc1ccc(CCC(=O)N2CCCC(c3cncc(-c4cccc(OC)c4)n3)C2)cc1 (stereo not drawn) [BDD_27924033]
3.82			Cc1cc(Nc2cccc(C3CCCN(C(=O)C4CCCCN4C(=O)OC(C)(C)C)C3)n2)[nH]n1 (stereo not drawn) [BDD_30366487]
-0.41			CNCc1cc(NC)nc(C2CCCN2C(=O)c2cccc(Oc3ccccc3)c2)n1 (stereo not drawn) [BDE_23425118]
	-14.24		CC(=O)N(C)Cc1cc(N(C)C)nc(C2CCCN2C(=O)Cc2ccc3c(c2)CCCC3)n1 (stereo not drawn) [BDE_23426204]
-3.75			CN(Cc1cc(N(C)C)nc(C2CCCCN2)n1)C(=O)c1ccccc1-c1ccccc1 (stereo not drawn) [BDE_23459438]
	-0.34		Cc1ccc(CC(=O)N2CCCC(c3ncccc3C(=O)NCc3ccccc3)C2)cc1C (stereo not drawn) [BDE_24458967]
		Inhibition percent [3]: -0.10	Cc1nn(C)cc1C(=O)N1CCCCC1c1ncccc1C(=O)NCc1ccccc1 (stereo not drawn) [BDE_24469941]
-2.87			O=C(NCc1ccccc1)c1cccnc1C1CCCCN1CC(=O)N1CCNC1=O (stereo not drawn) [BDE_24470675]
-1.66			Cc1ccccc1OCCN1C(=O)CCc2c(C)nc(CN(C)C(=O)C3CCCC3)nc21 [BDE_24687458]
-0.22			Cc1nnc(N2CCC(C3CC=CCN(Cc4ccc(F)cc4)C3=O)CC2)c2ccccc12 (stereo not drawn) [BDE_24723072]
		Inhibition percent [3]: -1.63	COCCNC(=O)CN1CCCC1c1nc(C)c2c(n1)N(Cc1ccccc1)C(=O)CC2 (stereo not drawn) [BDE_24735834]
-0.38			Cc1nc(C2CCN(C(=O)C3CCCC3)CC2)nc2c1CCC(=O)N2CCc1ccccc1 [BDE_24748773]
	8.09		O=C(NCCc1ccc(Cl)cc1)C1(Cc2cc(-c3ccccc3)no2)CCCO1 (stereo not drawn) [BDE_24757019]
	-2.53		CC1CCN(C(=O)CN2CCC(C3CCCCN(CCc4ccccc4)C3=O)CC2)CC1 (stereo not drawn) [BDE_25214814]
-0.77			Cc1c(C(=O)N2CCC(C3(C)CCCCN(CCc4ccccc4)C3=O)CC2)cnn1C (stereo not drawn) [BDE_25215150]
	2.24		CC(=O)N1CCc2nc(C3CCCN(C)C3)nc(NCCCc3ccccc3Cl)c2C1 (stereo not drawn) [BDE_25356631]
	1.06		CC(=O)N1CCC(c2nc3c(c(NCCOc4cccc(C)c4C)n2)CN(C)CC3)CC1 [BDE_25367865]

Source: article PMC9995496, “A screen for MeCP2-TBL1 interaction inhibitors using a luminescence-based assay” (Scientific Reports, 2023)
